Laboratory results as given in patent US12082918B2, “Preparation for magnetic resonance diagnostics for oncological diseases, comprising deuterated 2-amino-2-methylpropionic acid and/or 2-(N-methylamino)-2-methylpropionic acid, and diagnostic method using said preparation” (SOLVEX LIMITED LIABILITY COMPANY, priority 2017, dated 2024).

Experiments:
[1] = tested on: C6 glioma; experiment: 2H MRI visualisation of glioma C6 in rats in vivo; design: species or system Wistar rats; details: 4 hours after 150 mg i.p.
Description: (§1) In the examples below, the MRI scanner Bruker BioSpec BC70/30 USR with the constant field of 7.05 T, equipped with a surface transmitting-and-receiving coil with a diameter of 3 cm and a scan depth of ca. 1 cm was used.
(§2) To register deuterium image the FLASH (Fast low angle shot) pulse sequence was used.
(§3) For experiments with the broadband excitation the following settings were used: the excitation frequency was determined by ^2H NMR spectrum and was sfo1≈46.1745 MHz, a rectangular excitation pulse with a width of 1300 Hz and a power of 36 dB, the flip angle FA=30°, the time TR=11.8 MS, echo time TE=4.4 msec, a scan area of 10 cm×10 cm, scan matrix, 50×50, slice thickness 3 cm, bandwidth of 12500 Hz, total scan time 10 minutes (1030 averages).
In this example, experiments were conducted on Wistar rats inoculated with C6 glioma and in healthy Wistar rats.
An animal with the weight of 210 g was injected intraperitoneally a solution of 150 mg of 2-amino-2-(CD3)-3,3,3-D3-propionic acid in 1.5 ml of a saline solution. After injection, the animal was kept in a separate cage with free access to food and water. To register the MR images and spectra an animal was immobilized with isoflurane. The surface transmitting-and-receiving coil was fixed over the head of the rat.

[2] = tested on: carcinoma of the breast 4T1; experiment: 2H MRI visualisation of 4T1 breast carcinoma in mice in vivo; design: species or system mice Balb/c
[3] = tested on: carcinoma of the breast 4T1; experiment: as above; design: species or system mice Balb/c; remark: listed apart in the source
Description: as §1, §2, §3
For experiments with selective excitation the following settings were used: excitation frequency sfo1=46.1745 MHz, a rectangular excitation pulse with a width of 130 Hz and a power of 48 dB, the flip angle FA=30°, the repetition time TR=25 MS, echo time TE=10 MS, a scanning area of 10 cm×10 cm, scan matrix 50×50, slice thickness 3 cm, bandwidth of 25,000 Hz, total scan time 10 minutes.
In this example, experiments were conducted on mice Balb/c inoculated with carcinoma of the breast 4T1 (injection of 5×10^5 cells/60 μl under the left front paw for 10 days before experiment) and in healthy Balb/c mice.
An animal no. 1-5 weighing 20 g was injected intraperitoneally with a solution of 20 mg of 2-amino-2-(CD3)-3,3,3-D3-propionic acid in 0.5 ml of a saline solution. An animal no. […] weighing 20 g was injected intraperitoneally with a solution of 10 mg (mouse no. 4) or 5 mg (mouse no. 5) 2-amino-2-(CD3)-3,3,3-D3-propionic acid in 0.25 ml of a saline solution. After injection, the animal was kept in a separate cage for a specified time (no. 1 with the tumor and no. 2 without the tumor: 40 min; no. 3 with the tumor: 115 min; no. 4 with the tumor: 20 and 360 min; no. 5 and no. 6 with the tumor: 30 min). To register the MR images and spectra an animal was immobilized with isoflurane. The surface transmitting-and-receiving coil was fixed on the body of the mouse on the dorsal side sequentially in two positions (thoracic, kidneys). The FIGS. 3-7 show ^2H MR images obtained with the use of the broadband excitation of the deuterium nuclei.

localization of the deuterium signal (2H MRI) ([1]; rats without tumors): does not show a clear localization
allowable time range between administration and detection of deuterium ([3]; mice with 4T1 tumor, 20 mg i.p., FIGS. 3, 5, 7 and 8): 20 to 360 min
signal/noise ratio in the kidneys ([3]; mouse no. 1, 40 min after 20 mg i.p., broadband excitation): approximately 25
signal/noise ratio in the region of the tumor ([3]; mouse no. 1 with tumor, 40 min after 20 mg i.p., broadband excitation): approximately 6
signal/noise ratio in the region of the tumor ([3]; mouse no. 1 with tumor, 40 min after 20 mg i.p., selective excitation): about 4
visibility of excised tumor on deuterium MR image ([3]; tumors excised from mouse no. 3, 150 min after injection of 20 mg): clearly visible on deuterium MR image
SMILES: [2H]C([2H])([2H])C(N)(C(=O)O)C([2H])([2H])[2H] [2-amino-2-(CD3)-3,3,3-D3-propionic acid]
localization of the deuterium signal (2H MRI) ([1]; rat with C6 glioma): localized in the region corresponding to the tumor
localization of the deuterium signal (2H MRI) ([2]; mouse no. 4 with tumor, 20 min after 20 mg i.p.): localized in the region corresponding to the most recently developed and actively growing parts of the tumor, and also in the area corresponding to the liver
localization of the deuterium signal (2H MRI) ([2]; mouse no. 4 with tumor, 360 min after 20 mg i.p.): localized in the region corresponding to the most recently developed and actively growing parts of the tumor
localization of the deuterium signal (2H MRI) ([2]; mouse no. 5 with tumor, 30 min after 10 mg i.p.): localized in the region corresponding to individual parts of the tumor
localization of the deuterium signal (2H MRI) ([2]; mouse no. 6 with tumor, 30 min after 5 mg i.p.): localized in the region corresponding to individual parts of the tumor
localization of the deuterium signal (2H MRI) ([3]; control mouse no. 2 without the tumor, 40 min after 20 mg i.p.): localized in the region corresponding to the liver
localization of the deuterium signal (2H MRI) ([3]; mouse no. 1 with tumor, 40 min after 20 mg i.p.): localized in the region corresponding to the tumor
localization of the deuterium signal (2H MRI) ([3]; mouse no. 3 with tumor, 115 min after 20 mg i.p.): localized in the region corresponding to the tumor and in the area corresponding to the liver
